Source: patent publication US20240251802A1, “USE OF SATIVENE, AND RECOMBINANT BIOCONTROL FUNGUS AND MUSCARDINE CADAVER AND USE THEREOF” (priority 2022, published 2024)
Entries after “also recorded” stand apart in the source; their conditions may differ.

Tests used:
Type in all cases: in vivo
[1] = test system: Galleria mellonella larvae; test: Improved Two-way choice method, attraction of Galleria mellonella larvae; details: cotton balls with 100 μl solution vs n-hexane control, FIG. 3
Excerpt: An improved Two-way choice method was used to detect the attraction of Galleria mellonella muscardine cadavers to Galleria mellonella healthy larvae, with the device shown in FIG. 1B. Three freeze-killed Galleria mellonella larvae (control) and three the resulting Galleria mellonella muscardine cadavers were placed in 9 cm petri dishes, and the petri dishes were placed diagonally in the device; 40 healthy Galleria mellonella larvae were released at the center point of the device, and placed at room temperature in dark. The selection of healthy Galleria mellonella larvae was recorded after 1 h. A Response index was calculated [the Response index=the number of Galleria mellonella larvae selecting Galleria mellonella muscardine cadavers−the number of Galleria mellonella larvae selecting freeze-killed Galleria mellonella larvae)/the total number of Galleria mellonella larvae]. The experiment was repeated 6 times.
(§1) The muscardine cadaver was replaced by circular filter paper with a 5 mm diameter (containing 10 μl of different concentrations solutions of longifolene or sativene), and a control was a filter paper containing 10 μl of n-hexane solvent. Similarly, the method for detecting the attraction of muscardine cadavers to Galleria mellonella larvae and mosquitoes adults was also used to analyze the attraction of longifolene and sativene to these two kinds of insects. […]

Aedes albopictus adults = test: Two-way choice method, attraction of adult mosquitoes; details: for content with the strongest attraction on mosquitoes: content gradients 10^−5 g to 10^−9 g on cotton balls vs n-hexane control, FIG. 2C/2D
Method: The detection on attraction of muscardine cadavers to mosquito (Aedes albopictus) adults was conducted according to a relevant literature (Robinson Ailic, Busula Annette O, Voets Mirjam A, Beshir Khalid B, Caulfield John C. Powers Stephen J, Verhulst Niels O, Winskill Peter, Muwanguzi Julian, Birkett Michael A, Smallegange Renate C, Masiga Daniel K, Mukabana W Richard, Sauerwein Robert W, Sutherland Colin J, Bousema Teun, Pickett John A, Takken Willem, Logan James G, de Boer Jetske G. Plasmodium-associated changes in human odor attract mosquitoes. Proc Natl Acad Sci USA 2018; 115: 4215), and the device used was shown in FIG. 1D. One of freeze-killed Galleria mellonella larvae (control) and one of the resulting Galleria mellonella muscardine cadaver were placed in a 3.5 cm ampoule, and placed in cylinders on both sides of the device. 10 female mosquitoes without blood meal 3 d to 5 d after eclosion were placed in the middle of a tube 1. Openings at both ends of the tube 1 were covered with gauze, and the tube was placed in a refrigerator at 4° C. for 3 min to reduce mosquito activities. Then the tube 1 was connected to tubes 2 and 3. The whole device was placed in a dark incubator at 26° C., and the selection of mosquitoes was recorded after 10 h. A Response index was calculated [the Response index=the number of mosquitoes selecting Galleria mellonella muscardine cadavers−the number of mosquitoes selecting freeze-killed Galleria mellonella larvae)/the total number of mosquitoes].
as §1, with “insects. In the Galleria mellonella attractive device, the muscardine cadaver was replaced by cotton balls with about 2 cm diameter (containing 100 μl different concentrations solutions of longifolene or sativene), and a control was cotton balls containing 100 μl of n-hexane solvent.” for “insects.”
(§2) According to the above device, the attraction of transgenic strain Mr-Tps and WT strain grown on PDA and on fermentation medium to mosquitoes was compared. The mycelia of transgenic strain Mr-Tps and WT strain grown on PDA and on fermentation medium for 14 d and with a fresh weight of 0.3 g were placed on both sides of the device, respectively, and a preference percentage was calculated after a period of treatment, where the preference percentage=the number of insects selecting mycelia of transgenic strain and WT strain/the total number of insects.

Drosophila larvae = test: Two-way choice method, attraction of Drosophila larvae; details: FIG. 2A/2B; for concentration dependence of attraction on Drosophila larvae: content gradients 10^−5 g to 10^−11 g
Method: Two-way choice method was used to detect the attraction of Galleria mellonella muscardine cadavers to Drosophila healthy larvae, with the device shown in FIG. 1A. New freezing-killed Galleria mellonella larvae were kept at a room temperature for 20 min(control) and one of the resulting Galleria mellonella muscardine cadaver was placed on both sides of a 9 cm petri dish (containing 2% water agar), and then 20 healthy 3-instar Canton-S Drosophila larvae were placed in the middle part of the petri dish. After 10 min, photographing was conducted to record the selection of Drosophila larvae, and a Response index was calculated [the Response index=(the number of Drosophila larvae selecting Galleria mellonella muscardine cadaver−the number of Drosophila larvae selecting control Galleria mellonella larvae)/the total number of Drosophila larvae (20)]. The experiment was repeated 6 times.
as §1, §2

Compound | attraction of Galleria mellonella larvae [1] | response of mosquitoes at 10^−9 g (Aedes albopictus adults; 10^−9 g, FIG. 2C) | content with the strongest attraction on mosquitoes (Aedes albopictus adults) | concentration dependence of attraction on Drosophila larvae (Drosophila larvae) | concentration dependence of attraction on mosquitoes (Aedes albopictus adults; content gradients 10^−5 g to 10^−9 g, FIG. 2D) | lowest level to which Drosophila larvae respond (Drosophila larvae; content gradients 10^−5 g to 10^−11 g on filter paper vs n-hexane control)
C=C1[C@H]2CC[C@@H]3[C@H]2C(C)(C)CCC[C@]13C [longifolene] | could also attract | little response | 10^−6 g | a higher concentration of the longifolene and sativene had a stronger attraction | – | –
C=C1C2CCC3C2C(C(C)C)CCC13C (stereo not drawn) [sativene] | has insect attracting properties; also recorded: could also attract | – | 10^−5 g | a higher concentration of the sativene has a stronger attracting effect; also recorded: a higher concentration of the longifolene and sativene had a stronger attraction | a higher concentration of the sativene has a stronger attracting effect; also recorded: a higher concentration of the sativene had a stronger attraction | ≤ 10^−11 g
